Source: patent publication US20260091050A1, “ADVANTAGEOUS ANTI-HCV COMBINATION THERAPY” (Atea Pharmaceuticals, Inc., priority 2021, published 2026)
“And” between values parts separate entries of the source, which are not always exact repeats. Equal entries are not always repeated.

Key:
[1] = Heart and liver tissue levels of active triphosphate 4 hours after oral Compound 1-A, dog; assay type: in vivo; conditions: 4 hours after single oral dose
Protocol: (§1) High levels of the active TP were measured in the liver of all species tested.

[2] = Three-part study (Parts C, D, E) of Compound 1-A: overall safety/tolerability and pharmacokinetics; assay type: in vivo, human
Protocol: (§2) Part C was a randomized, double-blind, placebo-controlled MAD study divided into three cohorts. […] The dose escalation only proceeded following satisfactory review of the data.
HCV-infected patients were treatment-naïve with HCV RNA ≥5 log 10 IU/mL. […] Plasma drug levels were measured using LC-MS/MS.

[3] = test system: GT1 HCV; experiment: Multiple dose study, 7 days QD, non-cirrhotic GT1 HCV-infected patients (Part C); assay type: in vivo, human
Protocol: (§3) Doses were administered as the Compound 1-A salt base. The free base Compound 1 equivalent is often given in parenthesis.
as §2
(§4) HCV-infected patients were treatment-naïve with HCV RNA ≥5 log 10 IU/mL. HCV RNA was quantified using COBAS® AmpliPrep TaqMAN® v2.0 with LLQ of 15 IU/mL. Plasma drug levels were measured using LC-MS/MS. […] Mean ages of enrolled subjects were 44, 39, and 56 years in the non-cirrhotic GT1b 600 mg dose cohort, non-cirrhotic GT3 cohort, and the cirrhotic cohort, respectively.

[4] = test system: GT3 HCV; experiment: 600 mg QD for 7 days in non-cirrhotic GT3 HCV-infected patients (Part D); assay type: in vivo, human
Protocol: as §3, §2, §4

[5] = Chemical stability of Compound 1-A at 25° C./60% RH and 40° C./75% RH over 6 months; assay type: physicochemical; conditions: for Increase of percent of water: over 6 months
Protocol: The container closure system for the study was a combination medicinal valve bag with a pharmaceutical laminated film over the pouch and desiccant silica gel between the two layers. […] Bags were then stored at 25° C./60% RH (relative humidity) and 40° C./75% RH (relative humidity). Organic purity, water content, ^1HNMR, DSC and Raman were measured at Time 0, Month 1, Month 2, Month 3 and Month 6.
The sample was dissolved in acetonitrile—water (90:10) (v/v). The gradient method is shown below.

[6] = Head-to-head comparison of Compound 1 and Compound 1-A in dogs: plasma levels; assay type: in vivo; conditions: dog plasma
Protocol: A head-to-head comparison of dogs dosed with Compound 1 and Compound 1-A was conducted.

[7] = Heart and liver tissue levels of active triphosphate 4 hours after oral Compound 1-A, monkey; assay type: in vivo; conditions: 4 hours after single oral dose
Protocol: as §1

[8] = Plasma levels of Compound 1 and metabolites after single oral dose of Compound 1-A, dog; assay type: in vivo
[9] = Plasma levels of Compound 1 and metabolites after single oral dose of Compound 1-A, rat; assay type: in vivo; conditions: 500 mg/kg single oral dose
[10] = Solubility in biorelevant test medias (water, SGF, FaSSIF, FeSSIF); conditions: for Appearance: solubility test; for Descriptive term: solubility
[11] = 600 mg of Compound 1-A, GT1, non-cirrhotic (n = 6)
[12] = 600 mg of Compound 1-A, GT3, non-cirrhotic (n = 6)
[13] = 25° C., Month 1, compared with Day 0
[14] = 25° C., Month 2, compared with Day 0
[15] = 25° C., Month 3, compared with Day 0
[16] = 25° C., Month 6, compared with Day 0
[17] = 40° C., Month 1, compared with Day 0
[18] = 40° C., Month 2, compared with Day 0
[19] = 40° C., Month 3, compared with Day 0
[20] = 40° C., Month 6, compared with Day 0
[21] = Dog, 30 mg/kg single oral dose, plasma

With CNc1nc(N)nc2c1ncn2[C@@H]1O[C@H](CO[P@@](=O)(N[C@@H](C)C(=O)OC(C)C)Oc2ccccc2)[C@@H](O)[C@@]1(C)F [Compound 1-A, isopropyl ((S)-(((2R,3R,4R,5R)-5-(2-amino-6-(methylamino)-9H-purin-9-yl)-4-fluoro-3-hydroxy-4-methyltetrahydrofuran-2-yl)methoxy) (phenoxy)phosphoryl)-L-alaninate hemisulfate] the “active TP (metabolite 1-6) level in heart” value [1] was “Relatively low levels”, the “active TP (metabolite 1-6) level in liver” value [1] was “High levels” and the “impact of mild hepatic impairment on PK” value ([2]; based on plasma exposures) was “did not significantly impact”. For the same compound, the “low-grade lipid abnormalities (cholesterol and triglyceride increase)” value ([2]; compared to placebo) was “higher incidence”, the tolerability ([2]; up to 600 mg salt form for seven days) was “well tolerated” and the “subjects achieving HCV RNA <LOQ” value ([3]; 600 mg QD, non-cirrhotic GT1b, LOQ=15 IU/mL) was 50%. For the same compound, the “Mean Max Reduction” value [3, 11] was 4.4 log10 IU/mL, the “Mean Reduction After 24 hours” value [3, 11] was 2.1 log10 IU/mL and the “HCV RNA < LOQ (15 IU/mL)” value ([3]; 600 mg of Compound 1-A, GT1, non-cirrhotic (n = 6), subjects/total) was 3/6. The “mean maximum HCV RNA reduction” value ([4]; 600 mg QD for 7 days, non-cirrhotic GT3) was 4.6 log10 IU/mL and 4.5 log10 IU/mL, the “Mean Max Reduction” value [4, 12] was 4.5 log10 IU/mL and the “Mean Reduction After 24 hours” value [4, 12] was 2.4 log10 IU/mL. The “HCV RNA < LOQ (15 IU/mL)” value ([4]; 600 mg of Compound 1-A, GT3, non-cirrhotic (n = 6), subjects/total) was 1/6, the “mean HCV RNA reduction” value ([4]; after the first dose of 600 mg, non-cirrhotic GT3) was 2.4 log10 IU/mL and the “Maximum Impurity Percent” value ([5]; 25° C., Day 0) was 0.12%. The “Percent Purity” value ([5]; 25° C., Day 0) was 99.82%, the “Percent Water” value ([5]; 25° C., Day 0) was 1.2% and the “Maximum Impurity Percent” value ([5]; 25° C., Month 1) was 0.12%. The “Percent Purity” value ([5]; 25° C., Month 1) was 99.77%, the “Percent Water” value ([5]; 25° C., Month 1) was 1.9% and the DSC [5, 13] was “The same”. For the same compound, the Raman [5, 13] was “The same”, the “^1HNMR” value [5, 13] was “The same” and the “Maximum Impurity Percent” value ([5]; 25° C., Month 2) was 0.12%. For the same compound, the “Percent Purity” value ([5]; 25° C., Month 2) was 99.75%, the “Percent Water” value ([5]; 25° C., Month 2) was 1.8% and the DSC [5, 14] was “The same”. The Raman [5, 14] was “The same”, the “^1HNMR” value [5, 14] was “The same” and the “Maximum Impurity Percent” value ([5]; 25° C., Month 3) was 0.12%. For the same compound, the “Percent Purity” value ([5]; 25° C., Month 3) was 99.75%, the “Percent Water” value ([5]; 25° C., Month 3) was 1.8% and the DSC [5, 15] was “The same”. The Raman [5, 15] was “The same”, the “^1HNMR” value [5, 15] was “The same” and the “Maximum Impurity Percent” value ([5]; 25° C., Month 6) was 0.13%. The “Percent Purity” value ([5]; 25° C., Month 6) was 99.74%, the “Percent Water” value ([5]; 25° C., Month 6) was 1.8% and the DSC [5, 16] was “The same”. The Raman [5, 16] was “The same”, the “^1HNMR” value [5, 16] was “The same” and the “Increase of percent of water” value ([5]; 25° C.) was “approximately 0.6%”. The “Maximum Impurity Percent” value ([5]; 40° C., Day 0) was 0.12%, the “Percent Purity” value ([5]; 40° C., Day 0) was 99.82% and the “Percent Water” value ([5]; 40° C., Day 0) was 1.2%. For the same compound, the “Maximum Impurity Percent” value ([5]; 40° C., Month 1) was 0.12%, the “Percent Purity” value ([5]; 40° C., Month 1) was 99.71% and the “Percent Water” value ([5]; 40° C., Month 1) was 2.0%. For the same compound, the DSC [5, 17] was “The same”, the Raman [5, 17] was “The same” and the “^1HNMR” value [5, 17] was “The same”. The “Maximum Impurity Percent” value ([5]; 40° C., Month 2) was 0.12%, the “Percent Purity” value ([5]; 40° C., Month 2) was 99.63% and the “Percent Water” value ([5]; 40° C., Month 2) was 1.9%. The DSC [5, 18] was “The same”, the Raman [5, 18] was “The same” and the “^1HNMR” value [5, 18] was “The same”. For the same compound, the “Maximum Impurity Percent” value ([5]; 40° C., Month 3) was 0.12%, the “Percent Purity” value ([5]; 40° C., Month 3) was 99.58% and the “Percent Water” value ([5]; 40° C., Month 3) was 1.9%. For the same compound, the DSC [5, 19] was “The same”, the Raman [5, 19] was “The same” and the “^1HNMR” value [5, 19] was “The same”. For the same compound, the “Maximum Impurity Percent” value ([5]; 40° C., Month 6) was 0.14%, the “Percent Purity” value ([5]; 40° C., Month 6) was 99.30% and the “Percent Water” value ([5]; 40° C., Month 6) was 1.9%. The DSC [5, 20] was “The same”, the Raman [5, 20] was “The same” and the “^1HNMR” value [5, 20] was “The same”. For the same compound, the “Increase of percent of water” value ([5]; 40° C.) was “approximately 0.7%”, the “AUC(0-4 hr) of metabolite 1-7 compared to dosing with Compound 1” value [6] was “twice as great” and the “Mean Dose-normalized AUC(0-4 hr) for Compound 1” value ([6]; normalized to a dose of 25 mg/kg, 25 mg/kg) was 1.0 µM·h. For the same compound, the “active TP (metabolite 1-6) level in heart” value [7] was “unquantifiable levels”, the “active TP (metabolite 1-6) level in liver” value [7] was “High levels” and the “Compound 1 Cmax” value [8, 21] was 1530 ng/mL. The Tmax [8, 21] was 15 to 60 min, the “Compound 1 Tmax” value ([8]; Dog, 100 mg/kg single oral dose, plasma) was 30 to 60 min and the “vomiting (animals affected)” value ([8]; dogs, high dose group) was 5/5. The “Compound 1 AUC0-last” value [9] was 60.9 ng·h/mL, the “Compound 1 Cmax” value [9] was 70.5 ng/mL and the “Compound 1 Tmax” value [9] was 15 min. For the same compound, the Appearance ([10]; FaSSIF) was “Turbid”, the Appearance ([10]; FeSSIF) was “Turbid” and the Appearance ([10]; SGF) was “Turbid”. The Appearance ([10]; Water) was “Turbid”, the Descriptive term ([10]; FaSSIF) was “Slightly” and the Descriptive term ([10]; FeSSIF) was “Slightly”. The Descriptive term ([10]; SGF) was “Soluble” and the Descriptive term ([10]; Water) was “Soluble”.
